This is an account of results in ChEMBL document CHEMBL4831514, “Novel betulin dicarboxylic acid ester derivatives as potent antiviral agents: Design, synthesis, biological evaluation, structure-activity relationship and in-silico study” (Eur J Med Chem, 2021).

Each structure is given as a SMILES string. Active and inactive are the calls of the source. No cut-off for these calls is given here.

A short description of data set [1]: (§1) Cytotoxicity against human A549 cells assessed as reduction in cell viability incubated for 48 hrs by MTT assay. To be noted: A549 cells. Format: cell-based. (Tetrazolium dyes change colour on reduction, which living cells bring about.)
In another data set the test system is A549. Described as §1. The data set is classed as cell-based. To be noted: a549, 48 h.
A further data set deals with MDCK. Description: Cytotoxicity against MDCK cells assessed as reduction in cell viability incubated for 72 hrs by MTT assay. Format: cell-based, Canis lupus familiaris. To be noted: dog, mdck, 72 h.
In data set [2] the test system is Human alphaherpesvirus 1. Description: Antiviral activity against Human herpesvirus-1 MacIntyre infected in A549 cells assessed as inhibition of viral adsorption at early stage of replication treated for 1 hr during viral infection followed by replacement with fresh medium and measured after 48 hrs by MTT assay. Format: functional, organism-based.
Another data set deals with Enterovirus E. Description: Antiviral activity against Enterovirus E LCR-4 infected in A549 cells assessed as inhibition of viral adsorption at early stage of replication treated for 1 hr during viral infection followed by replacement with fresh medium and measured after 72 hrs by MTT assay. Format: functional, organism-based.
Data set [3] deals with Human adenovirus 5. Description: Antiviral activity against Human adenovirus 5 Adenoid 75 infected in A549 cells assessed as inhibition of viral adsorption at early stage of replication treated for 1 hr during viral infection followed by replacement with fresh medium and measured after 72 hrs by MTT assay. Format: functional, organism-based.
The test system of data set [4] is Human alphaherpesvirus 1. Description: Antiviral activity against Human herpesvirus 1 MacIntyre infected in A549 cells assessed as reduction in virus titer treated 1 hr post viral infection followed by replacement with fresh medium with compounds and measured after 48 hrs by MTT assay. Format: functional, organism-based. To be noted: Human alphaherpesvirus 1, MacIntyre.

A short description of data set [5]: Selectivity index, ratio of CC50 for cytotoxicity against human A549 cells to EC50 for antiviral activity against Human herpesvirus 1 MacIntyre infected in A549 cells assessed as reduction in virus titer treated 1 hr post viral infection followed by replacement with fresh medium with compounds and measured after 72 hrs by MTT assay. To be noted: read-out: Selectivity Index. Format: toxicity, cell-based.

Data set [6] deals with Human alphaherpesvirus 1. Description: Potency index, ratio of acyclovir EC50 to test compound EC50 for antiviral activity against Human herpesvirus 1 MacIntyre infected in A549 cells assessed as reduction in virus titer treated 1 hr post viral infection followed by replacement with fresh medium with compounds and measured after 48 hrs by MTT assay. Format: functional.
For data set [7], the system named is Vesicular stomatitis virus. In words: Antiviral activity against Vesicular stomatitis virus Indiana infected in A549 cells assessed as reduction in virus titer preincubated for 24 hrs followed by viral infection and measured after 72 hrs by microscopic analysis. Format: functional, organism-based.
Data set [8] deals with Human alphaherpesvirus 1. In words: Antiviral activity against Human herpesvirus 1 MacIntyre infected in A549 cells assessed as reduction in virus titer preincubated for 24 hrs followed by viral infection and measured after 72 hrs by microscopic analysis. Format: functional, organism-based.
For data set [9], the system named is Human adenovirus 5. In words: Antiviral activity against Human adenovirus 5 Adenoid 75 infected in A549 cells assessed as reduction in virus titer preincubated for 24 hrs followed by viral infection and measured after 72 hrs by microscopic analysis. The data set is classed as functional, organism-based.

The term CC50 denotes the concentration giving 50% cytotoxicity. Broadly, the EC50 is the concentration at which the effect is half-maximal. For `C=C(C)[C@@H]1CC[C@]2(COC(=O)CCCC(=O)N3CCOCC3)CC[C@]3(C)[C@H](CC[C@@H]4[C@@]5(C)CC[C@H](O)C(C)(C)[C@@H]5CC[C@]43C)[C@@H]12`, the CC50 at 48 h in data set [1] came out at 151 µM. Also, the CC20 in the data set with A549 and in the data set on MDCK was 18.85 µM in each case. The outcome (in the data set with Human alphaherpesvirus 1 [2]; with Enterovirus E; in the data set with Human adenovirus 5 [3]; in [7]; in the data set with Human alphaherpesvirus 1 [8]; in the data set with Human adenovirus 5 [9]) was inactive. In the data set with Human alphaherpesvirus 1 [4], the EC50 was determined as 18.9 µM. Also, the selectivity ratio at 72 h in data set [5] came out at 8. In the data set on Human alphaherpesvirus 1 [6], the “Ratio EC50” value is 3.

As for `C=C(C)[C@@H]1CC[C@]2(COC(=O)c3ccccc3C(=O)N3CCSCC3)CC[C@]3(C)[C@H](CC[C@@H]4[C@@]5(C)CC[C@H](O)C(C)(C)[C@@H]5CC[C@]43C)[C@@H]12`, in data set [1], the CC50 at 48 h is 350 µM. The results for the CC20 in the data set on A549 and in the data set with MDCK were 58.9 µM and 7.3 µM, respectively. The outcome (with Human alphaherpesvirus 1 [2]; with Enterovirus E; in the data set on Human adenovirus 5 [3]; in [7]; in the data set with Human alphaherpesvirus 1 [8]; in the data set on Human adenovirus 5 [9]) was inactive. In addition, the EC50 in the data set on Human alphaherpesvirus 1 [4] came to 29.6 µM. Besides, the selectivity ratio at 72 h in [5] stood at 11.8. The “Ratio EC50” value in the data set with Human alphaherpesvirus 1 [6] was 3.

Regarding `C=C(C)[C@@H]1CC[C@]2(COC(=O)c3ccccc3C(=O)N3CCCCC3)CC[C@]3(C)[C@H](CC[C@H]4C3(C)CC[C@H]3C(C)(C)[C@@H](O)CC[C@@]34C)[C@@H]12` (single isomer, unassigned), in [1], the CC50 at 48 h came to 65.4 µM. Moreover, the CC20 stood at 65.45 µM in the data set on A549 and 32.72 µM with MDCK. Further, the outcome (in the data set with Human alphaherpesvirus 1 [2]; with Enterovirus E; in the data set with Human adenovirus 5 [3]; in data set [7]; in the data set with Human alphaherpesvirus 1 [8]; in the data set with Human adenovirus 5 [9]) was inactive. Also, the EC50 in the data set on Human alphaherpesvirus 1 [4] is 32.7 µM. The selectivity ratio at 72 h in data set [5] was determined as 2. Moreover, in the data set with Human alphaherpesvirus 1 [6], the “Ratio EC50” value is reported as 3.

On to `C=C(C)[C@@H]1CC[C@]2(COC(=O)CCCC(=O)N3CCSCC3)CC[C@]3(C)[C@H](CC[C@@H]4[C@@]5(C)CC[C@H](O)C(C)(C)[C@@H]5CC[C@]43C)[C@@H]12`, for which the CC20 in the data set with A549 stood at 122.7 µM; with MDCK, 61.35 µM. Also, the outcome (with Human alphaherpesvirus 1 [2]; with Enterovirus E; in the data set with Human adenovirus 5 [3]; in [7]; in the data set on Human alphaherpesvirus 1 [8]; in the data set on Human adenovirus 5 [9]) was inactive.

With `C#CCNC(=O)CCCC(=O)OC[C@]12CC[C@@H](C(=C)C)[C@@H]1[C@H]1CC[C@@H]3[C@@]4(C)CC[C@H](O)C(C)(C)[C@@H]4CC[C@@]3(C)[C@]1(C)CC2`, the CC20 was found to be 42.09 µM with A549 and 1.18 µM with MDCK. Further, the result (with Human alphaherpesvirus 1 [2]; in the data set with Enterovirus E; in the data set on Human adenovirus 5 [3]; in data set [7]; in the data set on Human alphaherpesvirus 1 [8]; with Human adenovirus 5 [9]) was inactive.

For the molecule `C#CC1(NC(=O)CCCCCCCCCC(=O)OC[C@]23CC[C@@H](C(=C)C)[C@@H]2[C@H]2CCC4[C@@]5(C)CC[C@H](O)C(C)(C)[C@@H]5CC[C@@]4(C)[C@]2(C)CC3)CCCCC1` (single isomer, unassigned), the CC20 in the data set on A549 and in the data set on MDCK was 102.46 µM each time. Moreover, the result (with Human alphaherpesvirus 1 [2]; in the data set with Enterovirus E; in the data set on Human adenovirus 5 [3]; in [7]; in the data set with Human alphaherpesvirus 1 [8]; in the data set with Human adenovirus 5 [9]) was inactive.

For `C=C(C)[C@@H]1CC[C@]2(COC(=O)CCCCCCCCCC(=O)N3CCCCC3)CC[C@]3(C)[C@H](CC[C@@H]4[C@@]5(C)CC[C@H](O)C(C)(C)[C@@H]5CC[C@]43C)[C@@H]12`, the values for the CC20 in the data set on A549 and in the data set on MDCK were 127.23 µM and 127.84 µM, respectively. In addition, the result (in the data set on Human alphaherpesvirus 1 [2]; in the data set on Enterovirus E; with Human adenovirus 5 [3]; in data set [7]; in the data set with Human alphaherpesvirus 1 [8]; with Human adenovirus 5 [9]) was inactive.

For `C=C(C)[C@@H]1CC[C@]2(COC(=O)CCCC(=O)N3CCCCC3)CC[C@]3(C)[C@H](CC[C@@H]4[C@@]5(C)CC[C@H](O)C(C)(C)[C@@H]5CC[C@]43C)[C@@H]12`, the figures for the CC20 with A549 and with MDCK were 17.12 µM and 4.25 µM, respectively. In addition, the result (in the data set with Human alphaherpesvirus 1 [2]; with Enterovirus E; in the data set with Human adenovirus 5 [3]; in [7]; with Human alphaherpesvirus 1 [8]; with Human adenovirus 5 [9]) was inactive. Further, the “Ratio EC50” value in the data set with Human alphaherpesvirus 1 [6] came to 3.

As to `C=C(C)[C@@H]1CCC2(COC(=O)CCCCCCCCCC(=O)N3CCSCC3)CC[C@]3(C)[C@H](CC[C@@H]4[C@@]5(C)CC[C@H](O)C(C)(C)[C@@H]5CC[C@]43C)[C@@H]12` (single isomer, unassigned), the CC20 in the data set with A549 and in the data set with MDCK was 114.81 µM each time. Moreover, the outcome (in the data set on Human alphaherpesvirus 1 [2]; in the data set with Enterovirus E; in the data set with Human adenovirus 5 [3]; in data set [7]; in the data set on Human alphaherpesvirus 1 [8]; with Human adenovirus 5 [9]) was inactive.

With `C=C(C)[C@@H]1CC[C@]2(COC(=O)CCC(=O)O)CC[C@]3(C)[C@H](CC[C@@H]4[C@@]5(C)CCC(O)C(C)(C)[C@@H]5CC[C@]43C)[C@@H]12` (single isomer, unassigned), the CC20 with A549 and in the data set with MDCK was 11.51 µM each time. The outcome (with Human alphaherpesvirus 1 [2]; with Enterovirus E; in the data set with Human adenovirus 5 [3]; in data set [7]; with Human alphaherpesvirus 1 [8]; with Human adenovirus 5 [9]) was inactive.

As to `C#CCNC(=O)CCCCCCCCCC(=O)OC[C@]12CC[C@@H](C(=C)C)[C@@H]1[C@H]1CC[C@@H]3[C@@]4(C)CC[C@H](O)C(C)(C)[C@@H]4CC[C@@]3(C)[C@]1(C)CC2`, the CC20 in the data set on A549 turned out to be 38.46 µM; with MDCK it was 153.85 µM. In addition, the outcome (with Human alphaherpesvirus 1 [2]; in the data set with Enterovirus E; in the data set on Human adenovirus 5 [3]; in data set [7]; in the data set on Human alphaherpesvirus 1 [8]; in the data set on Human adenovirus 5 [9]) was inactive.

Regarding `C=C(C)[C@@H]1CC[C@]2(COC(=O)/C=C/C(=O)O)CC[C@]3(C)[C@H](CC[C@@H]4[C@@]5(C)CC[C@H](O)C(C)(C)[C@@H]5CC[C@]43C)[C@@H]12`, the results for the CC20 in the data set with A549 and in the data set on MDCK were 11.55 µM and 5.73 µM, respectively. The result (in the data set with Human alphaherpesvirus 1 [2]; with Enterovirus E; in the data set on Human adenovirus 5 [3]; in data set [7]; in the data set with Human alphaherpesvirus 1 [8]; in the data set on Human adenovirus 5 [9]) was inactive.

As for `C#CCNC(=O)/C(C)=C/C(=O)OC[C@]12CC[C@@H](C(=C)C)[C@@H]1[C@H]1CC[C@@H]3[C@@]4(C)CC[C@H](O)C(C)(C)[C@@H]4CC[C@@]3(C)[C@]1(C)CC2`, the CC20 came to 10.56 µM in the data set on A549 and 84.46 µM in the data set on MDCK. Also, the result (in the data set on Human alphaherpesvirus 1 [2]; with Enterovirus E; in the data set on Human adenovirus 5 [3]; in [7]; in the data set on Human alphaherpesvirus 1 [8]; with Human adenovirus 5 [9]) was inactive.

As for `C#CC1(NC(=O)c2ccccc2C(=O)OC[C@]23CC[C@@H](C(=C)C)[C@@H]2[C@H]2CC[C@@H]4[C@@]5(C)CC[C@H](O)C(C)(C)[C@@H]5CC[C@@]4(C)[C@]2(C)CC3)CCCCC1`, the CC20 stood at 109.82 µM in the data set with A549 and 1.57 µM with MDCK. In addition, the outcome (with Human alphaherpesvirus 1 [2]; in the data set on Enterovirus E; in the data set with Human adenovirus 5 [3]; in [7]; with Human alphaherpesvirus 1 [8]; with Human adenovirus 5 [9]) was inactive.
